Measured values: PubChem BioAssay (NCI)
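How tested: cells in 96-well plates exposed to compound for 48 hours at five concentrations. GI50: concentration for 50% inhibition of growth. TGI: concentration producing complete growth inhibition.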

Legend:
Assay in all cases: NCI tumour cell line growth inhibition, 48 h
[1] = test system: 786-0 renal
[2] = test system: A498 renal
[3] = test system: A549 NSCLC
[4] = test system: ACHN renal
[5] = test system: BT-549 breast
[6] = test system: CAKI-1 renal
[7] = test system: CCRF-CEM leukemia
[8] = test system: COLO 205 colon
[9] = test system: DU-145 prostate
[10] = test system: EKVX NSCLC
[11] = test system: HCC-2998 colon
[12] = test system: HCT-116 colon
[13] = test system: HCT-15 colon
[14] = test system: HL-60(TB) leukemia
[15] = test system: HOP-62 NSCLC
[16] = test system: HOP-92 NSCLC
[17] = test system: HS 578T breast
[18] = test system: HT29 colon
[19] = test system: IGROV1 ovarian
[20] = test system: K-562 leukemia
[21] = test system: KM12 colon
[22] = test system: LOX IMVI melanoma
[23] = test system: M14 melanoma
[24] = test system: MALME-3M melanoma
[25] = test system: MCF7 breast
[26] = test system: MDA-MB-231 breast
[27] = test system: MDA-MB-435
[28] = test system: MOLT-4 leukemia
[29] = test system: NCI-H226 lung
[30] = test system: NCI-H23 lung
[31] = test system: NCI-H460 lung
[32] = test system: NCI-H522 lung
[33] = test system: NCI/ADR-RES ovarian
[34] = test system: OVCAR-4 ovarian
[35] = test system: OVCAR-5 ovarian
[36] = test system: OVCAR-8 ovarian
[37] = test system: PC-3 prostate
[38] = test system: RPMI-8226 leukemia
[39] = test system: RXF 393 renal
[40] = test system: SF-268 CNS
[41] = test system: SF-295 CNS
[42] = test system: SF-539 CNS
[43] = test system: SK-MEL-2 melanoma
[44] = test system: SK-MEL-28 melanoma
[45] = test system: SK-MEL-5 melanoma
[46] = test system: SK-OV-3 ovarian
[47] = test system: SN12C renal
[48] = test system: SNB-19 CNS
[49] = test system: SNB-75 CNS
[50] = test system: SR leukemia
[51] = test system: SW-620 colon
[52] = test system: T-47D breast
[53] = test system: TK-10 renal
[54] = test system: U251 CNS
[55] = test system: UACC-257 melanoma
[56] = test system: UACC-62 melanoma
[57] = test system: UO-31 renal

`CCOc1ccc(NC2=C(Cl)C(=O)c3nc(C)ccc3C2=O)cc1` gave a GI50 [1] of 1720 nM, a TGI [1] of 3190 nM and a GI50 [2] of 1560 nM. For the same compound, the TGI [2] was 5520 nM, the GI50 [3] was 2090 nM and the TGI [3] was 4640 nM. For the same compound, the GI50 [4] was 1570 nM, the TGI [4] was 2920 nM and the GI50 [5] was 1430 nM. It also gave a TGI [5] of 2800 nM, a GI50 [6] of 1600 nM and a TGI [6] of 2970 nM. For the same compound, the GI50 [7] was 2110 nM, the TGI [7] was over 100000 nM and the GI50 [8] was 1860 nM. For the same compound, the TGI [8] was 3640 nM, the GI50 [9] was 1720 nM and the TGI [9] was 3130 nM. For the same compound, the GI50 [10] was 1610 nM, the TGI [10] was 3120 nM and the GI50 [11] was 1760 nM. The TGI [11] was 3250 nM, the GI50 [12] was 1320 nM and the TGI [12] was 2790 nM. For the same compound, the GI50 [13] was 1300 nM, the TGI [13] was 2950 nM and the GI50 [14] was 1470 nM. For the same compound, the TGI [14] was 4180 nM, the GI50 [15] was 1740 nM and the TGI [15] was 3230 nM. The GI50 [16] was 2020 nM, the TGI [16] was 3510 nM and the GI50 [17] was 2220 nM. It also gave a TGI [17] of 5820 nM, a GI50 [18] of 2870 nM and a TGI [18] of 7080 nM. The GI50 [19] was 1360 nM, the TGI [19] was 2760 nM and the GI50 [20] was 1170 nM. The TGI [20] was over 100000 nM, the GI50 [21] was 1440 nM and the TGI [21] was 3070 nM. For the same compound, the GI50 [22] was 1060 nM, the TGI [22] was 2330 nM and the GI50 [23] was 1680 nM. It also gave a TGI [23] of 3230 nM, a GI50 [24] of 1650 nM and a TGI [24] of 3160 nM. It also gave a GI50 [25] of 1540 nM, a TGI [25] of 3820 nM and a GI50 [26] of 1170 nM. The TGI [26] was 2500 nM, the GI50 [27] was 442 nM and the TGI [27] was 1530 nM. The GI50 [28] was 2490 nM, the TGI [28] was over 100000 nM and the GI50 [29] was 1840 nM. The TGI [29] was 4520 nM, the GI50 [30] was 1350 nM and the TGI [30] was 2850 nM. The GI50 [31] was 3080 nM, the TGI [31] was 10400 nM and the GI50 [32] was 1750 nM. It also gave a TGI [32] of 3220 nM, a GI50 [33] of 1700 nM and a TGI [33] of 4110 nM. It also gave a GI50 [34] of 1130 nM, a TGI [34] of 2370 nM and a GI50 [35] of 1920 nM. The TGI [35] was 3460 nM, the GI50 [36] was 1570 nM and the TGI [36] was 3010 nM. The GI50 [37] was 1300 nM, the TGI [37] was 2770 nM and the GI50 [38] was 1670 nM. The TGI [38] was 5330 nM, the GI50 [39] was 1570 nM and the TGI [39] was 2960 nM. It also gave a GI50 [40] of 1550 nM, a TGI [40] of 3090 nM and a GI50 [41] of 1860 nM. The TGI [41] was 3430 nM, the GI50 [42] was 1680 nM and the TGI [42] was 3130 nM. The GI50 [43] was 1630 nM, the TGI [43] was 3030 nM and the GI50 [44] was 1730 nM. It also gave a TGI [44] of 3140 nM, a GI50 [45] of 1720 nM and a TGI [45] of 3110 nM. The GI50 [46] was 11000 nM, the TGI [46] was 30100 nM and the GI50 [47] was 1580 nM. For the same compound, the TGI [47] was 2990 nM, the GI50 [48] was 1680 nM and the TGI [48] was 3160 nM. The GI50 [49] was 1460 nM, the TGI [49] was 2790 nM and the GI50 [50] was 1090 nM. For the same compound, the TGI [50] was over 100000 nM, the GI50 [51] was 1830 nM and the TGI [51] was 3510 nM. The GI50 [52] was 1010 nM, the TGI [52] was 3910 nM and the GI50 [53] was 2300 nM. The TGI [53] was 3770 nM, the GI50 [54] was 1800 nM and the TGI [54] was 3540 nM. The GI50 [55] was 1390 nM, the TGI [55] was 2780 nM and the GI50 [56] was 1810 nM. For the same compound, the TGI [56] was 3290 nM, the GI50 [57] was 1430 nM and the TGI [57] was 2750 nM.
